From ChEMBL document CHEMBL3885881, “DrugMatrix”

Species on record: Rattus norvegicus
Experiment: DrugMatrix - Regimen: Daily Repeat
Assay type: toxicity, organism-based, Sprague-Dawley
Design: regimen Daily Repeat, gender Male, age 6-8 weeks
Settings: in vivo, iv, vehicle 100 % SALINE; for ABSOLUTE BASOPHIL / ABSOLUTE EOSINOPHIL / ABSOLUTE LYMPHOCYTE / ABSOLUTE MONOCYTE / ABSOLUTE SEGMENTED NEUTROPHIL / BASOPHIL / EOSINOPHIL / ERYTHROCYTE COUNT / HEMATOCRIT / HEMOGLOBIN / LEUKOCYTE COUNT / LYMPHOCYTE / MEAN CORPUSCULAR HEMOGLOBIN / MEAN CORPUSCULAR HEMOGLOBIN CONCENTRATION / MEAN CORPUSCULAR VOLUME / MONOCYTE / NEUTROPHIL / NUCLEATED RED BLOOD CELLS / PLATELET COUNT: tissue Blood; for ALANINE AMINOTRANSFERASE / ALBUMIN / ALKALINE PHOSPHATASE / ASPARTATE AMINOTRANSFERASE / BLOOD UREA NITROGEN / CARBON DIOXIDE / CHLORIDE / CHOLESTEROL / CREATINE PHOSPHOKINASE / CREATININE / GLUCOSE / LACTATE DEHYDROGENASE / LIPASE / PHOSPHORUS / POTASSIUM / SODIUM / TOTAL BILIRUBIN / TOTAL PROTEIN / URIC ACID: tissue Plasma
[1] = 0 mg/kg, 72 h, dose level Control, time 3 day
[2] = 0 mg/kg, 120 h, dose level Control, time 5 day
[3] = 0.08 mg/kg, 72 h, dose level Low, time 3 day

CC[C@]1(O)C[C@@H]2CN(CCc3c([nH]c4ccccc34)[C@@](C(=O)OC)(c3cc4c(cc3OC)N(C)[C@H]3[C@@](O)(C(=O)OC)[C@H](OC(C)=O)[C@]5(CC)C=CCN6CC[C@]43[C@@H]65)C2)C1 [VINBLASTINE]
ABSOLUTE BASOPHIL [1]: 0 CELLS/uL
ABSOLUTE EOSINOPHIL [1]: 21.67 CELLS/uL
ABSOLUTE LYMPHOCYTE [1]: 10193.67 CELLS/uL
ABSOLUTE MONOCYTE [1]: 165.83 CELLS/uL
ABSOLUTE SEGMENTED NEUTROPHIL [1]: 702.17 CELLS/uL
BASOPHIL [1]: 0%
EOSINOPHIL [1]: 0.17%
ERYTHROCYTE COUNT [1]: 5.39 x10E6/uL
HEMATOCRIT [1]: 34.62%
HEMOGLOBIN [1]: 13.8 G/DL
LEUKOCYTE COUNT [1]: 11.08 x10E3/uL
LYMPHOCYTE [1]: 91.83%
MEAN CORPUSCULAR HEMOGLOBIN [1]: 25.68 pg
MEAN CORPUSCULAR HEMOGLOBIN CONCENTRATION [1]: 39.9 G/DL
MEAN CORPUSCULAR VOLUME [1]: 64.37 fL
MONOCYTE [1]: 1.5%
NEUTROPHIL [1]: 6.5%
NUCLEATED RED BLOOD CELLS [1]: 0 /100WBC
PLATELET COUNT [1]: 1202.83 x10E3/uL
ALANINE AMINOTRANSFERASE [1]: 55.5 u/L
ALBUMIN [1]: 4.22 G/DL
ALKALINE PHOSPHATASE [1]: 406.83 u/L
ASPARTATE AMINOTRANSFERASE [1]: 101.5 u/L
BLOOD UREA NITROGEN [1]: 13.5 mg/dL
CARBON DIOXIDE [1]: 30.33 mmol/L
CHLORIDE [1]: 102.17 MEQ/L
CHOLESTEROL [1]: 63.67 mg/dL
CREATINE PHOSPHOKINASE [1]: 732.67 u/L
CREATININE [1]: 0.2 mg/dL
GLUCOSE [1]: 157 mg/dL
LACTATE DEHYDROGENASE [1]: 442.5 u/L
LIPASE [1]: 10.83 u/L
PHOSPHORUS [1]: 12.68 mg/dL
POTASSIUM [1]: 5.67 MEQ/L
SODIUM [1]: 144 MEQ/L
TOTAL BILIRUBIN [1]: 0.15 mg/dL
TOTAL PROTEIN [1]: 6.02 G/DL
URIC ACID [1]: 1.55 mg/dL
ABSOLUTE BASOPHIL [2]: 0 CELLS/uL
ABSOLUTE EOSINOPHIL [2]: 17 CELLS/uL
ABSOLUTE LYMPHOCYTE [2]: 11849.17 CELLS/uL
ABSOLUTE MONOCYTE [2]: 69.83 CELLS/uL
ABSOLUTE SEGMENTED NEUTROPHIL [2]: 730.67 CELLS/uL
BASOPHIL [2]: 0%
EOSINOPHIL [2]: 0.17%
ERYTHROCYTE COUNT [2]: 5.93 x10E6/uL
HEMATOCRIT [2]: 37.42%
HEMOGLOBIN [2]: 14.4 G/DL
LEUKOCYTE COUNT [2]: 12.67 x10E3/uL
LYMPHOCYTE [2]: 93.17%
MEAN CORPUSCULAR HEMOGLOBIN [2]: 24.32 pg
MEAN CORPUSCULAR HEMOGLOBIN CONCENTRATION [2]: 38.5 G/DL
MEAN CORPUSCULAR VOLUME [2]: 63.08 fL
MONOCYTE [2]: 0.5%
NEUTROPHIL [2]: 6.17%
NUCLEATED RED BLOOD CELLS [2]: 0 /100WBC
PLATELET COUNT [2]: 1170.5 x10E3/uL
ALANINE AMINOTRANSFERASE [2]: 51 u/L
ALBUMIN [2]: 4.12 G/DL
ALKALINE PHOSPHATASE [2]: 392.67 u/L
ASPARTATE AMINOTRANSFERASE [2]: 81.67 u/L
BLOOD UREA NITROGEN [2]: 16.17 mg/dL
CARBON DIOXIDE [2]: 30.67 mmol/L
CHLORIDE [2]: 100.5 MEQ/L
CHOLESTEROL [2]: 64.83 mg/dL
CREATINE PHOSPHOKINASE [2]: 242.67 u/L
CREATININE [2]: 0.2 mg/dL
GLUCOSE [2]: 186.83 mg/dL
LACTATE DEHYDROGENASE [2]: 188 u/L
LIPASE [2]: 10.83 u/L
PHOSPHORUS [2]: 11.67 mg/dL
POTASSIUM [2]: 5.51 MEQ/L
SODIUM [2]: 142.55 MEQ/L
TOTAL BILIRUBIN [2]: 0.22 mg/dL
TOTAL PROTEIN [2]: 6.08 G/DL
URIC ACID [2]: 1.85 mg/dL
ABSOLUTE BASOPHIL [3]: 0 CELLS/uL
ABSOLUTE EOSINOPHIL [3]: 42 CELLS/uL
ABSOLUTE LYMPHOCYTE [3]: 6254.33 CELLS/uL
ABSOLUTE MONOCYTE [3]: 40 CELLS/uL
ABSOLUTE SEGMENTED NEUTROPHIL [3]: 297 CELLS/uL
BASOPHIL [3]: 0%
EOSINOPHIL [3]: 0.67%
ERYTHROCYTE COUNT [3]: 4.48 x10E6/uL
HEMATOCRIT [3]: 28.87%
HEMOGLOBIN [3]: 11.63 G/DL
LEUKOCYTE COUNT [3]: 6.63 x10E3/uL
LYMPHOCYTE [3]: 94.33%
MEAN CORPUSCULAR HEMOGLOBIN [3]: 26 pg
MEAN CORPUSCULAR HEMOGLOBIN CONCENTRATION [3]: 40.33 G/DL
MEAN CORPUSCULAR VOLUME [3]: 64.43 fL
MONOCYTE [3]: 0.67%
NEUTROPHIL [3]: 4.33%
NUCLEATED RED BLOOD CELLS [3]: 0 /100WBC
PLATELET COUNT [3]: 825.33 x10E3/uL
ALANINE AMINOTRANSFERASE [3]: 47.67 u/L
ALBUMIN [3]: 4.1 G/DL
ALKALINE PHOSPHATASE [3]: 395.67 u/L
ASPARTATE AMINOTRANSFERASE [3]: 99 u/L
BLOOD UREA NITROGEN [3]: 14 mg/dL
CARBON DIOXIDE [3]: 32.33 mmol/L
CHLORIDE [3]: 103.33 MEQ/L
CHOLESTEROL [3]: 67.33 mg/dL
CREATINE PHOSPHOKINASE [3]: 526.33 u/L
CREATININE [3]: 0.17 mg/dL
GLUCOSE [3]: 135 mg/dL
LACTATE DEHYDROGENASE [3]: 170.67 u/L
LIPASE [3]: 10.33 u/L
PHOSPHORUS [3]: 11.9 mg/dL
POTASSIUM [3]: 6.35 MEQ/L
SODIUM [3]: 144.8 MEQ/L
TOTAL BILIRUBIN [3]: 0.17 mg/dL
TOTAL PROTEIN [3]: 5.6 G/DL
URIC ACID [3]: 1.13 mg/dL
